Data taken from ChEMBL document CHEMBL3217449 (Medchemcomm, 2010).
Values after ≈ are worked out from the molar mass of the structure shown.

Assays:
[1] = Inhibition of AKT phosphorylation at S473 in human BT20 cells after 1 hr by sandwich ELISA; format: cell-based; conditions: BT-20, 1 h
[2] = Metabolic stability in human liver microsomes assessed as extraction ratio; format: ADME; conditions: read-out: ERH
[3] = Kinetic solubility of the compound; format: physicochemical; conditions: read-out: Kinetic_solubility
[4] = biological target: Phosphatidylinositol 4,5-bisphosphate 3-kinase catalytic subunit alpha isoform (Mus musculus, UniProt P42337); test: Inhibition of mouse PI3K alpha expressed in insect cells coexpressing p85 subunit assessed as PI(3,4,5)P3 formation using PI(4,5)P2 as substrate by measuring displacement of TAMRA-labeled PI(3,4,5)P3 from Grip1 PH domain after 35 mins by ligand displacement fluorescence polarization assay
Chain of Phosphatidylinositol 4,5-bisphosphate 3-kinase catalytic subunit alpha isoform (P42337 whole entry, the tested form may be a part, canonical isoform): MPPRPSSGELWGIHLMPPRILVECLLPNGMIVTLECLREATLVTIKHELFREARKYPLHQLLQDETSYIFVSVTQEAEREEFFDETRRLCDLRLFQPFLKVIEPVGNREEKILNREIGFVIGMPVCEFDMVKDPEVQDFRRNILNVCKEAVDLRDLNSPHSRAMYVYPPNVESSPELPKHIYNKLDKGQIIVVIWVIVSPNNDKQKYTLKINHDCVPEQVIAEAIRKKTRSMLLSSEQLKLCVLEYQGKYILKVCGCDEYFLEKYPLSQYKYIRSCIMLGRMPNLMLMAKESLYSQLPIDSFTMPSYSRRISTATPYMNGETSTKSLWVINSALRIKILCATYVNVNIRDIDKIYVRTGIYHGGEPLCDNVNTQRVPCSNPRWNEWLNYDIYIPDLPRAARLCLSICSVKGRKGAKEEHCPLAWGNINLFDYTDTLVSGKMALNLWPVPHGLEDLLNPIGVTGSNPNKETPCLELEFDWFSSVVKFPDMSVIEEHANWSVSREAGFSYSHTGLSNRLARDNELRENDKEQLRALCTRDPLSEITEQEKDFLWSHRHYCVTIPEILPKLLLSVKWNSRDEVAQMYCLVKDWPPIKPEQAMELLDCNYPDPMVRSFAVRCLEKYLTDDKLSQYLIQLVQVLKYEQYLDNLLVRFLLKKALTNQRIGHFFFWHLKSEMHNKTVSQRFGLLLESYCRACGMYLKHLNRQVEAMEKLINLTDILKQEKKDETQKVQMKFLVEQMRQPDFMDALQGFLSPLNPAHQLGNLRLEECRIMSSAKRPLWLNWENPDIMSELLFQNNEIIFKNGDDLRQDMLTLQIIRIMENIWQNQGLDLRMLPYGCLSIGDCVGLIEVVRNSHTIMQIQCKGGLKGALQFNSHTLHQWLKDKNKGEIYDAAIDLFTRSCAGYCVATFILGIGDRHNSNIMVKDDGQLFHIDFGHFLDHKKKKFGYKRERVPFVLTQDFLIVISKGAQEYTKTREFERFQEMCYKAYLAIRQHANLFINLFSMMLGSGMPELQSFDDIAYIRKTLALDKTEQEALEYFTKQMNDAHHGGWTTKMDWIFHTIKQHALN

[5] = biological target: Serine/threonine-protein kinase mTOR (Homo sapiens, UniProt P42345)
[6] = Drug absorption in rat; format: ADME, organism-based; conditions: in vivo, read-out: Drug absorption
Rattus norvegicus [7] = test: Drug metabolism in iv dosed rat plasma assessed as 2-amino-8-((cis)-4-hydroxycyclohexyl)-6-(6-methoxypyridin-3-yl)-4-methylpyrido[2,3-d]pyrimidin-7(8H)-one level; format: ADME, organism-based; conditions: in vivo
Mus musculus [8] = test: Drug metabolism in po dosed mouse plasma assessed as 2-amino-8-((cis)-4-hydroxycyclohexyl)-6-(6-methoxypyridin-3-yl)-4-methylpyrido[2,3-d]pyrimidin-7(8H)-one level; format: ADME, organism-based; conditions: in vivo
Rattus norvegicus [9] = test: Drug metabolism in iv dosed rat plasma assessed as 2-amino-8-((trans)-4-hydroxycyclohexyl)-6-(6-methoxypyridin-3-yl)-4-methylpyrido[2,3-d]pyrimidin-7(8H)-one level; format: ADME, organism-based; conditions: in vivo
Mus musculus [10] = test: Drug metabolism in po dosed mouse plasma assessed as 2-amino-8-((trans)-4-hydroxycyclohexyl)-6-(6-methoxypyridin-3-yl)-4-methylpyrido[2,3-d]pyrimidin-7(8H)-one level; format: ADME, organism-based; conditions: in vivo
[11] = Inhibition of AKT phosphorylation at S473 in human SKOV3 cells after 1 hr by sandwich ELISA; format: cell-based; conditions: SK-OV-3, 1 h
[12] = Clearance in rat at 2 mg/kg, iv and 5 mg/kg, po by LC-MS/MS analysis; format: ADME, organism-based; conditions: in vivo
Rattus norvegicus [13] = test: Unbound clearance in rat at 2 mg/kg, iv and 5 mg/kg, po by LC-MS/MS analysis; format: ADME, organism-based; conditions: in vivo
[14] = Volume of distribution at steady state in rat at 2 mg/kg, iv and 5 mg/kg, po by LC-MS/MS analysis; format: ADME, organism-based; conditions: in vivo, read-out: Vdss
[15] = Half life in rat at 2 mg/kg, iv and 5 mg/kg, po by LC-MS/MS analysis; format: ADME, organism-based; conditions: in vivo
[16] = Unbound fraction in rat plasma at 2 mg/kg, iv and 5 mg/kg, po by LC-MS/MS analysis; format: ADME, organism-based

Compound | IC50 [1] [nM] | hepatic extraction ratio [2] | solubility kinetic [3] [µM] | Ki [4] [nM] | Ki [5] [nM] | further results
CNc1nc(C)c2cc(-c3cccc(CO)c3)c(=O)n(C3CCCC3)c2n1 | 15 | 0.68 | 65 (≈ 23.7 µg/mL) | 1.4 | 840 | 
COc1ccc(-c2cc3c(C)nc(N)nc3n([C@H]3CC[C@H](O)CC3)c2=O)cn1 | 12 | < 0.25 | 16 (≈ 6.1 µg/mL) | 0.9 | 17 | Stability (Rattus norvegicus [7]): Unstable; Stability (Mus musculus [8]): Unstable
COc1ccc(-c2cc3c(C)nc(N)nc3n([C@H]3CC[C@@H](O)CC3)c2=O)cn1 | 22 | < 0.26 | 60 (≈ 22.9 µg/mL) | 3 | 90 | Stability (Rattus norvegicus [9]): Unstable; Stability (Mus musculus [10]): Unstable
COc1ccc(-c2cc3c(C)nc(N)nc3n(C3CCOC3)c2=O)cn1 (stereo not given) |  | < 0.26 | 144 (≈ 50.9 µg/mL) | 6.6 | 150 | 
Cc1nc(N)nc2c1cc(-c1cccc(CO)c1)c(=O)n2C1CCCC1 |  |  |  | 1.2 | 82 | 
COc1ccc(-c2cc3c(C)nc(N)nc3n([C@H]3CC[C@H](OCCO)CC3)c2=O)cn1 [PF-04691502] | 13 |  | 14 (≈ 5.96 µg/mL) |  |  | IC50 [11]: 7.4 nM; clearance [12]: 5.2 mL/min/kg; CL free (Rattus norvegicus [13]): 25.9 mL/min/kg; Vd [14]: 1.39 L/kg; half-life [15]: 186 min; fraction unbound [16]: 0.202

The next lines start with results.

IC50 [1] [nM] | hepatic extraction ratio [2] | solubility kinetic [3] [µM] | Ki [4] [nM] | Ki [5] [nM] | Compound | further results
16 | < 0.25 | 3.9 (≈ 1.37 µg/mL) | 1.4 | 200 | COc1ccc(-c2cc3c(C)nc(N)nc3n(C3CCCC3)c2=O)cn1 | Fa [6]: 28%
 |  |  | 1.1 | 700 | CNc1nc(C)c2cc(-c3ccc(OC)nc3)c(=O)n(C3CCCC3)c2n1 | 
 | < 0.26 | 40 (≈ 14.7 µg/mL) | 3.6 | 110 | COc1ccc(-c2cc3c(C)nc(N)nc3n(C3CCOCC3)c2=O)cn1 | 
